Test results: patent publication US11040108B2, “Amino acid- and peptide-steroid conjugates and use thereof” (BRANDEIS UNIVERSITY, priority 2016, dated 2021)
≈ marks a conversion by molar mass, not a printed value. Where two headings read alike, the source gives them in different places.

Experiments:
[1] = tested on: A2780cis cells; experiment: MTT assay, cytotoxicity against A2780cis; assay type: cell-based, human
Experimental: (§1) HeLa, Saos-2, HS-5, HepG2, T98G, and A2780 cells were purchased from American-type Culture Collection (ATCC, USA). A2780cis cell was purchased from Sigma. HeLa cells, HepG-2 cells, and T98G cells were cultured in MEM Medium supplemented with 10% v/v fetal bovine serum, 100 U/mL penicillin, and 100 μg/mL streptomycin. Saos-2 cells were cultured in McCoy's 5a Medium (for Saos-2) supplemented with 15% v/v fetal bovine serum, 100 U/mL penicillin, and 100 μg/mL streptomycin. HS-5 cells were cultured in Dulbecco's Modified Eagle's medium (DMEM) supplemented with 10% v fetal bovine serum (FBS), 100 U/mL penicillin, and 100 μg/mL streptomycin. A2780cis cells were cultured in RPMI 1640 Medium supplemented with 10% v/v fetal bovine serum, 100 U/mL penicillin, and 100 μg/mL streptomycin (cisplatin only necessary every 2-3 passages). All cells were maintained at 37° C. in a humidified atmosphere of 5% CO2.
(§2) An MTT assay was used to test the cytotoxicity. All different cell lines were seeded in 96-well plates at 1×10^5 cells/well for 24 hours followed by removal of the culture medium and subsequent addition of culture medium containing different concentrations of the precursors. At designated time (24/48/72 hours), 10 μL MTT solution (5 mg/mL) was added to each well and incubated at 37° C. for another 4 hours, and then 100 μL of SDS-HCl solution was added to stop the reduction reaction and dissolve the purple formazan. The absorbance of each well at 595 nm was measured by a multimode microplate reader. The cytotoxicity assay was performed three times and the average value of the three measurements was taken.
The activity of conjugate 1a against a platinum-resistant, ovarian cancer cell line (A2780cis) (Behrens et al., “Characterization of a Cis-Diamminedichloroplatinum(Ii)-Resistant Human Ovarian Cancer Cell Line and its Use in Evaluation of Platinum Analogues,” Cancer Res. 47:414 (1987); Masuda et al., “Increased DNA Repair as a Mechanism of Acquired Resistance to Cis-Diamminedichloroplatinum (II) in Human Ovarian Cancer Cell Lines,” Cancer Res. 48:5713 (1988), which are hereby incorporated by reference in their entirety) was first examined. To assess the efficacy of conjugate 1a, the assay was carried out in parallel using the known, clinically used cytotoxic agent, cisplatin.

[2] = tested on: HeLa cells; experiment: MTT assay, cytotoxicity against HeLa; assay type: cell-based, human; details: for IC50: Homo sapiens, HeLa, 48 h, read-out: IC50 against HeLa cell
Experimental: as §1, §2
To confirm that assemblies of the cholesterol conjugate are able to inhibit other cancer cell lines, 1a was incubated with HeLa cells, a widely studied malignant cervical cancer cell line.

[3] = tested on: HS-5 cell line (human bone marrow stroma cell line); experiment: MTT assay, cell viability of HS-5; assay type: cell-based; details: 12.5 μM, 48 hours (FIG. 5A)
Experimental: as §1, §2
To verify the selectivity of 1a against cancer cells, the HS-5 cell line (human bone marrow stroma cell line) was used; HS-5 hardly overexpresses ALP on cell surface. […] To further confirm that ALP on cell surface (i.e., as an ectophosphatase) contributed to the inhibitory activity of 1a, A2780cis were incubated with 1a and ALP (1 U/mL).
Additional cell viability assays were carried out using conjugates 1a and 1b, optionally with 3, against HepG2 human liver carcinoma cells, Saos-2 osteosarcoma cells, T98G glioblastoma cells, HS-5 (normal bone marrow stromal cells), A2780 ovarian cancer cells (parental line to A2780cis), and Kuramochi ovarian cancer cells. Conjugate 1a was particularly effective against ovarian and cervical cancer cells.

[4] = TEM of assemblies in aqueous solution; assay type: physicochemical; details: 1.0 wt %; for diameter of assemblies on direct dissolution in water: without ALP, 1b spheres-like vesicle, 2b nanoribbon
Experimental: Sample solution (5 sufficient to cover the grid surface) was placed on the grid. Approximately 10 sec later, sample was rinsed by placing a large drop of the ddH2O on parafilm and allowing the grid to touch the water drop, with the sample-loaded surface facing the parafilm. The grid was tilted and water was gently absorbed from the edge of the grid using a filter paper sliver. This procedure was repeated 3 times. Immediately after rinsing, the staining was conducted by placing a large drop of the uranyl acetate (UA) stain solution on parafilm and allowing the grid to touch the stain solution drop, with the sample-loaded surface facing the parafilm. The grid was tilted and the stain solution was gently absorbed from the edge of the grid using a filter paper sliver. Next, the grid was allowed to dry in air and the grid was examined as soon as possible.
To further understand the inhibitory activity of 1a, transmission electron microscopy (TEM) was used to confirm the EISA of 1b. […] In contrast, uniform nanofibers (diameter of 10±2 nm) formed after the addition of ALP (1 U/mL) into the solution of 1a (FIG. 3B). The resulted nanofibers entangled with each other to result in a viscous solution. […] But the direct dissolution of 2b (1.0 wt %) provided an aqueous solution containing nanoribbon with the diameter of 17±2 nm and in several hundred nanometer length (FIG. 4B). These observations, collectively, confirmed that enzymatic reaction modulated the morphology of the assemblies of the cholesterol conjugates, which partially contributed to the different inhibitory activities of 1a, 1b, 2a, and 2b. That is, being exposed to the cancer cell, 1a (or 2a) turns into 1b (or 2b), a process catalyzed by the extra- or intracellular enzymes of the cancer cells; the resulting 1b (or 2b) self-assembled to form nanoscale assemblies that result in death of the cancer cell.

[5] = tested on: HeLa, A2780cis, OVASHO, MES-SA/dx5 and Saos-2 cells; experiment: NBD visualization of nano-aggregates in cancer cell lines (CLSM); assay type: cell-based; details: 25 μM; 11a in all five cell lines, 11b in OVASHO and MES-SA/dx5
Experimental: Different cancer cells at the density of 1.5×10^5 were seeded onto 3.5 cm confocal dish. After the growth of cells in cell incubator for 24 h, 11a (or 11b) at 25 μM was added to the above solution with completed medium. At designated times, PBS was used to wash cells 3 times for 1 minute. Hoechst 33342 was used to stain cell nucleus for 10 minutes, and cells were then washed using live cell imaging solution 3 times for 1 minute. Cells were maintained in live cell imaging solution, and CLSM was carried out immediately. The excitation of wavelength was 488 nm, and the emission was 500 nm to 596 nm.

[6] = tested on: A2780 cell line; experiment: Cell viability of unstimulated or selected A2780 cell line (acquired resistance); assay type: cell-based; details: after five weeks treatment with gradually increased concentrations; 24, 48, 72 h
Experimental: as §2
The activity of 1a against non-drug resistant cancer cells was assessed using the A2780 cell line.

[7] = read-out: IC50 against A2780cis, 72 hours
[8] = 48 hours (FIG. 9A), unit inferred
[9] = concentration of 100 μM (FIG. 10)

CC(C)CCC[C@@H](C)C1CC[C@H]2[C@@H]3CC=C4CC(OC(=O)NC(Cc5ccc(O)cc5)C(=O)O)CC[C@]4(C)[C@H]3CC[C@]12C (stereo partly drawn) [1b, Cholesterol-D-Tyr]
cell viability / proliferation of A2780cis ([1]; 12.5 μM, 48 hours (FIG. 5A)): hardly inhibited | IC50 ([1]; Homo sapiens, A2780cis, 72 h, read-out: IC50 against A2780cis, 72 hours): 50 µM | IC50 [2]: 89.7 µM | cell viability / proliferation of HS-5 [3]: hardly inhibited | diameter of assemblies on direct dissolution in water [4]: 25±2 nm

CC(C)CCC[C@@H](C)C1CC[C@H]2[C@@H]3CC=C4CC(OC(=O)NC(Cc5ccc(OP(=O)(O)O)cc5)C(=O)O)CC[C@]4(C)[C@H]3CC[C@]12C (stereo partly drawn) [2a, Cholesterol-(phospho)L-Tyr]
IC50 against A2780cis ([1]; 72 hours): 15.2 µg/mL (≈ 22.6 µM) | IC50 [1, 7]: 22 µM | IC50 [2, 8]: 43.8 µM | morphology in aqueous solution without ALP ([4]; pH 7.4): disorder aggregates | diameter of nanofibers formed after addition of ALP ([4]; pH 7.4, ALP 1 U/mL, 24 hours): 15±2 nm

CC(C)CCC[C@@H](C)C1CC[C@H]2[C@@H]3CC=C4CC(OC(=O)NC(Cc5ccc(O)cc5)C(=O)O)CC[C@]4(C)[C@H]3CC[C@]12C (stereo partly drawn) [2b, Cholesterol-L-Tyr]
IC50 [1, 7]: 36 µM | IC50 [2, 8]: 59.2 µM | diameter of assemblies on direct dissolution in water [4]: 17±2 nm

CC(C)CCC[C@@H](C)C1CC[C@H]2[C@@H]3CC=C4CC(OC(=O)NC(Cc5ccc(OP(=O)(O)O)cc5)C(=O)N[C@H](CCCCNc5ccc([N+](=O)[O-])c6nonc56)C(=O)O)CC[C@]4(C)[C@H]3CC[C@]12C (stereo partly drawn) [11a, cholesterol-(phospho)y-(NBD)k]
presence of nano-aggregates in or on treated cells [5]: confirmed presence of nano-aggregates

CC(C)CCC[C@@H](C)C1CC[C@H]2[C@@H]3CC=C4CC(OC(=O)NC(Cc5ccc(O)cc5)C(=O)N[C@H](CCCCNc5ccc([N+](=O)[O-])c6nonc56)C(=O)O)CC[C@]4(C)[C@H]3CC[C@]12C (stereo partly drawn) [11b, cholesterol-y-(NBD)k]
presence of nano-aggregates in or on treated cells [5]: confirmed presence of nano-aggregates

N.N.[Cl][Pt][Cl] [cisplatin, reference compound]
IC50 against A2780cis ([1]; 48 hours): 21.2 µg/mL | IC50 against A2780cis ([1]; 72 hours): 12.2 µg/mL | IC50 ([1]; 72 hours, read-out: IC50 against A2780cis): 41 µM | inhibition of A2780 and acquired drug resistance [6]: caused platinum-resistance

CC(C)CCC[C@@H](C)C1CC[C@H]2[C@@H]3CC=C4CC(OC(=O)NC(Cc5ccccc5)C(=O)O)CC[C@]4(C)[C@H]3CC[C@]12C (stereo partly drawn) [compound 3, Cholesterol-D-Phe]
effect on A2780cis cells [1, 9]: innocuous | effect on HeLa cells [2, 9]: innocuous
